The results in this text go back to a melting point compilation (Tetko et al.; mined from patent text by program, amines drawn as free bases though some values may be those of a salt).

The structures appear in SMILES notation.

In the case of `Cc1cc2c(cc1C(F)(F)F)NC(=O)CC(c1cccc(-c3ncoc3C)c1)=N2`, the melting point was 241 to 242 °C. As to `CCCCCCCCCCCCCCCCCCCC(C)=O`, the melting point lay in the range of 41 to 42 °C. The molecule `O=C(O)Cc1nc(-c2ccc(Cl)cc2)oc1-c1ccsc1` came in with a melting point of 218 to 219 °C. As for `CCC(CC)Nc1nc(C)nc(Oc2c(C)cc(C)nc2C)c1[N+](=O)[O-]`, the melting point was 134 to 135 °C. Consider `O=c1c2cnc(-c3ccccc3)nc2sn1Cc1ccccc1`, for which the melting point was in the range of 166 to 167 °C. As for `O=C(O)c1cn(-c2ccc(F)cc2)c2c(F)c(N3Cc4cccc(Cl)c4C3)c(F)cc2c1=O`, the melting point was 283 to 291 °C. Then `CC(C)(C)OC(=O)N1CC[C@H](O)[C@H]1C(=O)O`, with 156 to 157 °C; and `Clc1c(Cl)c(Cl)c2[nH]c(NC3=NCCN3)nc2c1Cl`, with 310 °C. For the molecule `O=C(Nc1ccccc1)Nc1cccnc1Cl`, the melting point lay in the range of 178 to 180 °C. `CC(=O)Nc1ccc(OC(C)(C)C(=O)c2ccccc2)cc1`: the melting point is 141 to 142 °C. The molecule `COc1ccnc(CCc2nc3cc(-c4ccc(S(=O)(=O)N(C)C)c(F)c4)cnc3[nH]2)c1` yielded a melting point of 211 to 212 °C. Regarding `C=CCOc1cc([N+](=O)[O-])ccc1Cl`, the melting point fell in the range of 58 to 59.5 °C. For the molecule `Cc1oc(-c2ccccc2)nc1CCOc1ccc(CCl)cc1`, the melting point is 88 to 90 °C.

For the molecule `COc1ccc(-c2nc(-c3ccc4c(c3)OCO4)c(-c3ccc4c(c3)OCO4)[nH]2)c(OC)c1`, the melting point is 95 °C. As to `COc1cc(OC)cc(-c2oc3ncnc(NC4CCCCCC4)c3c2-c2ccccc2)c1`, the melting point was 151 to 152 °C. Molecule `O=C(CC1CCCCC1=O)c1ccccc1` (stereo not given) displayed a melting point of 44 to 45 °C. `Cc1ccc(NC(=O)C(C)C)s1` showed a melting point of 95 to 97 °C. For `CC(C)(O)c1cccn2c(-c3ccnc(NC4CCC(C(=O)N5CCC(O)CC5)CC4)n3)cnc12` (stereo not given), the melting point was in the range of 188 to 190 °C. The molecule `CC(C)NC(=O)Nc1ccc(Cl)cc1C(=O)c1ccccc1` yielded a melting point of 190 to 192 °C.

Consider `O=c1oc2ccccc2c(=O)n1OS(=O)(=O)C(F)(F)F`, for which the melting point is 74 to 76 °C.

As to `CCC(CC)COc1ccc(S(=O)(=O)C2(C(=O)NO)CCN(Cc3ccccc3)CC2)cc1`, the melting point is 114 °C. `COC(=O)c1cccc(C=O)c1O` returned a melting point of 82 to 84 °C. The molecule `COc1ccc(NN=C(C)C)cc1` yielded a melting point of 163 to 164 °C. The molecule `CC(=O)OC1CSC(Oc2ccc(I)nc2F)C(OC(C)=O)C1OC(C)=O` (stereo not given) had a melting point of 234 °C. Take `COC(=O)NC1Cc2ccc([N+](=O)[O-])cc2C1O` (stereo not given): the melting point fell in the range of 201 to 203 °C. `CCCCCOC(=O)NS(=O)(=O)CCc1cc(OCCCC)nn1Cc1ccc(Cl)cc1Cl` displayed a melting point of 91 to 93 °C. Then `Cc1cccc(Nc2ccc(Nc3ncnc4cc(-c5ccccc5)sc34)cc2)c1`, with 170 to 171 °C; and `Clc1ccc2c3c(cnc2c1)OCCN3`, with 219 to 220 °C. Molecule `CCOC(=O)c1cc(O)c(C(=O)c2ccc(Cl)cc2)c([N+](=O)[O-])c1` showed a melting point of 188 to 192 °C.

As to `O=c1[nH]sc2nc(N3CCCCC3)ncc12`, the melting point lay in the range of 268 to 269 °C. Then `Cc1cc(C)cc(NC(=O)c2cc(Br)ccc2O)c1`, with 188 to 190 °C. `Cc1cc(SC(C)C)c(NC(=O)CCCCSc2nc3ccccc3o2)c(SC(C)C)n1` had a melting point of 129 to 130 °C.

In turn, `COc1ccc(Nc2cncc(-c3cccc(NC(=O)c4ccccc4)c3)c2)cc1` had a melting point of 135 to 140 °C. Take `CNC(=O)N(O)Cc1cccs1`: the melting point stood at 108 °C. `CNC(=O)c1cccc(NC(=O)COc2ccc3ccccc3c2)c1`: the melting point turned out to be 174 °C. Then `O=C(C1CCCCC1)N1CC(=S)N2CCCc3ccccc3C2C1` (stereo not given), with 150 to 151 °C; and `CCOC(=O)CCc1c[nH]c(-c2cccs2)c1`, with 39 to 40 °C.

Regarding `Cc1cc2c(cc1S(N)(=O)=O)S(=O)(=O)NC(C1CCCCC1)N2` (stereo not given), the melting point was in the range of 231 to 233 °C. Then `O=C(Cc1ccccc1Cl)Nc1ccc(C(=O)N2CCCCc3sccc32)cc1`, with 178 to 180 °C. For the molecule `C=C1CCc2c(F)c(F)cc3c(=O)c(C(=O)OCC)cn1c23`, the melting point lay within 272 to 274 °C. In the case of `CCOC(=O)C(=O)c1cn(Cc2ccc(C(C)(C)C)cc2)c2cc(-c3ccc(C(F)(F)F)cc3)ccc12`, the melting point lay within 164 to 165 °C. The value for `Cc1c(-c2ccccc2)c2cc(Cl)cc3c2n1CC3` was 202 to 204 °C; that for `CC(=O)NCCC[C@H]1NC(=O)[C@@H](Cc2cn(C)c3ccccc23)NC1=O` was 138 °C; that for `Cc1ccc2c([nH]c(=O)n3c(=O)[nH]nc23)c1C` was 380 to 382 °C. The molecule `CC(=O)N1N=C(c2ccncc2)OC1(C)c1ccccc1` (stereo not given) registered a melting point of 79 to 81 °C. For the molecule `CCC(CC)COC(=O)c1ccc(N)cc1`, the melting point lay in the range of 52 to 53 °C.

Regarding `Cc1ccc2c(c1)CC(=O)c1cc(C)ccc1O2`, the melting point was in the range of 62 to 62.5 °C. The value for `COc1cc(C)c(S(C)(=O)=O)cc1C(=O)O` was 228 °C; that for `CCCCn1c(=O)n(CCCC)c2cc3c(N4CCN(C(=O)Nc5ccc(Oc6ccccc6)cc5)CC4)ncnc3cc21` was 134 to 136 °C; that for `O=C(C=Cc1ccc(O)c([N+](=O)[O-])c1)N(c1ccccc1)c1ccccc1` was 197 to 198 °C. `O=C(CCl)Nc1ccc2c(c1NC(=O)c1ccco1)C(=O)c1ccccc1C2=O` returned a melting point of 211 to 212 °C.

`CCCCC(=O)N(CCOC)Cc1ccc(-c2ccccc2-c2nnn[nH]2)cc1` showed a melting point of 120 to 122 °C.

For the molecule `O=c1c2cc(F)c(F)cc2[nH]c2c1cnn2-c1ccccn1`, the melting point was over 300 °C. The molecule `CNC(=O)c1cc(SC)cc(N)n1` gave a melting point of 89 to 91 °C.

`O=C(c1cc2ccc(N3CCCCC3)cc2o1)C12CC3CC(CC(C3)C1)C2` registered a melting point of 150 to 152 °C. In the case of `CN1CCC(Cn2c(=O)[nH]c3ncc(-c4ccc(O)cc4)nc32)CC1`, the melting point fell in the range of 292 to 294 °C. `CCOC(=O)c1c(NC(=O)C(F)(F)F)c2cccnc2n(CC)c1=O`: the melting point lay within 195 to 197 °C. Regarding `CC(C)(C)c1cc(CCc2ccc(NC(=O)NC3CCN(Cc4ccccc4)CC3)cc2)cc(C(C)(C)C)c1O`, the melting point lay within 195 to 197 °C. `CCCCCNc1ncnc2c(C)n[nH]c12` showed a melting point of 158 °C. In the case of `CCCn1nc2c(N)nc3ccccc3c2c1CC(C)(C)NC(=O)c1ccncc1`, the melting point was 148 to 150 °C.

The molecule `CCC(=O)NCCC1CCc2c(OC)ccc3ccc(OC)c1c23` (stereo not given) had a melting point of 111 °C.

Regarding `CCOC(C#N)NC(=O)c1ccc(COC)cc1` (stereo not given), the melting point lay within 99 to 100 °C. `CCN1c2ncccc2C(=O)Nc2c(C)cc(N3CCCC(CO)C3)nc21` (stereo not given) displayed a melting point of 194 to 197 °C.

`NC(=O)CN1CCN(C(=O)Cc2ccc(OC(=O)c3ccc([N+](=O)[O-])cc3)cc2)CC1` registered a melting point of 192 to 196 °C. In turn, `CC(C)=C(C)CCC(C)C1CCC2(C)C3CCC4C(C)(C)C(O)CCC45CC35CCC12C` (stereo not given) gave a melting point of 165 to 166 °C.

For the molecule `CCc1c(C(=O)C(N)=O)c2ccsc2n1Cc1ccccc1`, the melting point is 90 to 92 °C. As to `O=C1CCC2(CC1)CC(=O)c1ccccc1C2`, the melting point is 158 to 160 °C. For the molecule `COc1ccc2c(c1)C(CCNC(=O)C(F)(F)F)=CC2`, the melting point fell in the range of 87 to 88 °C. The molecule `Nc1sc(-c2ccoc2)c(CN(C2CCCCC2)C2CCCCC2)c1C(=O)c1ccc(Cl)cc1` gave a melting point of 132 to 135 °C. The molecule `CNS(=O)(=O)c1ccc(C2=NC(C)(C)Cc3cc(OC)c4c(c32)CC(C)(C)O4)cc1` came in with a melting point of 146 to 148 °C. As to `CCn1c(=O)ccn(-c2ccc(N)cc2)c1=O`, the melting point worked out at 191 °C.

In the case of `COc1c(C)c(C=O)c(OC)c2ccccc12`, the melting point lay in the range of 95 to 96 °C. `Cc1c(N2C(=O)C[C@@](O)(C3CC3)[C@@H]2C)ccc(C#N)c1Cl` had a melting point of 231 to 236 °C.

`COC(=O)c1ccc(OCC2CC(=O)N(c3ccc(OCCO)cc3)C2)cc1` (stereo not given) had a melting point of 129 to 131 °C. In turn, `Cn1ccnc1Sc1ccc(Nc2c(C#N)cnc3cc(-c4ccc(CN5CCNCC5)cc4)ccc23)cc1Cl` registered a melting point of 140 to 142 °C. `COc1ccc(Cl)c(C)c1C=O`: the melting point is 86 to 88 °C.

With `O=C1Cc2cc(F)c(Cl)cc2N1`, the melting point lay in the range of 196 to 206 °C. In turn, `COc1ccc(CNc2nc(CN3CCC(C(=O)O)CC3)nc3oc4c(c23)CCCC4)cc1Cl` yielded a melting point of 233 to 235 °C. For `CC#CCOc1ccc(S(=O)(=O)NC2(C(=O)O)CCCCC2)cc1`, the melting point fell in the range of 112 to 114 °C.

For the molecule `CS(=O)(=O)Nc1ccc(C(=O)NC(=O)N2CCC(Cc3ccccc3)CC2)cc1`, the melting point lay in the range of 97.5 to 100 °C.

Molecule `COC(=O)NN=C1CCc2ccccc21` showed a melting point of 155 to 156 °C.

For `O=C(Cc1cccc(C(F)(F)F)c1)c1c(O)c2cccnc2n(-c2ccccc2)c1=O`, the melting point was in the range of 201 to 203 °C. Molecule `CC1=CCCC2C1(C)CCC(C)C2(C)Cc1cc(O)ccc1O` (stereo not given) showed a melting point of 146 to 148 °C. Then `COCCOc1cc(N(C)S(=O)(=O)c2cccs2)c2[nH]c(C3=NCC(CCO)S3)cc2c1` (stereo not given), with 122 to 123 °C; and `COc1ccccc1N1CCN(c2nc3c(cc2F)c(=O)c(C(=O)O)cn3-c2ccc(F)cc2)CC1`, with 272 to 273 °C; and `O=C(O)Cc1c(C(=O)c2cccc(Cl)c2)[nH]c2ccc(F)cc12`, with 208 to 212 °C. In the case of `COc1ccc(-n2cc(CCCO)c(C(C)C)n2)nn1`, the melting point was in the range of 122 to 123 °C. The value for `CCCOc1nc(Nc2ccc(F)c(Cl)c2)nc(NC2CCN(S(C)(=O)=O)CC2)n1` was 199 to 201 °C. The value for `CCCCn1c(=O)n(C)c(=O)c2nc(-c3ccc(/C=C/C(=O)O)cc3)[nH]c21` was over 300 °C; that for `Cc1nc(NC(=O)c2cnn3c(C(F)F)cc(-c4ccc(C(F)(F)F)cc4)nc23)sc1S(=O)(=O)N(CCO)CCO` was 191 °C.
